From patent publication US20220161456A1, “S[…] PRESERVATIVE COMPOSITION COMPRISING POLYMERIC BETAINE AND CARBAMATE” (Troy Corporation, priority 2019, published 2022)

Legend:
[1] = system: Penicillium funiculosum (ATCC #11797); assay: EUCAST 96-well plate fungal growth inhibition (MIC); format: cell-based; parameters: key to growth of Penicillium funiculosum in 96-well plates: (+) in each block indicates growth; (−) indicates no growth, i.e., the inhibitor was effective; conditions: for MIC: Penicillium funiculosum ATCC 11797, 3 days at 35° C.
Experimental: (§1) (A) 0.17 g of 60% DPAB aqueous solution (ProTek® PBT or Polymeric Betaine EP or Polymeric Betaine Technical Grade Active Ingredient Wood Preservative, Troy Chemical Corporation, Newark, N.J.) was diluted in 9.83 g ethanol by stirring to form a concentrate containing 1% DPAB.
(§2) (B) 0.25 g of 40% IPBC solvent solution (Polyphase® AF-1, Troy Chemical Corporation, Newark, N.J.) was diluted in 9.75 g ethanol by stirring to form a concentrate containing 1% IPBC.
(§3) (C) 21.04 g of 60% DPAB aqueous solution (ProTek® PBT or Polymeric Betaine EP or Polymeric Betaine Technical Grade Active Ingredient Wood Preservative, Troy Chemical Corporation, Newark, N.J.), 6.25 g of 40% IPBC solvent solution (Polyphase AF-1, Troy Chemical Corporation, Newark, N.J.) and 22.74 g of ethanol were mixed and stirred. The resulting concentrate contained 25% polymeric betaine and 5% IPBC. The weight ratio of polymeric betaine to IPBC was 5:1. 0.33 g of this IPBC/polymeric betaine concentrate was diluted in 9.67 g of ethanol to form a use-dilution containing about 0.83% DPAB and 0.17% IPBC.
(§4) Solutions prepared as described above were tested in 96-well plates for their ability to inhibit fungal growth. The solutions were tested according to the EUCAST methodology as described in Rodriguez-Tudela et al. 2006 “Antifungal susceptibility testing in Aspergillus spp. according to EUCAST methodology,” the contents of which are incorporated by reference herein. The solutions were checked for inhibition against fungal organisms Aspergillus niger (ATCC #6275), Aureobasidium pullulans (ATCC #9348), Penicillium funiculosum (ATCC #11797) and Trichoderma pseudokoningii (ATCC #26801). This method is described below:
(§5) (1) Prepared preservative test wells by adding 2 microliters of each 1% preservative solution formulation to 198 microliters of 2xRPMI-MOPS-2% Glucose in each column “1” in duplicate.
(§6) (2) Added 100 microliters of 2xRPMI-MOPS-2% Glucose to the remaining columns.
(§7) (3) Performed 2-fold dilutions down the columns to column “12”.
(§8) (4) Prepared suspension of microorganisms from a 3-5 day old PDA slants by flooding slant with 1 mL deionized water and 0.1% Tween-20.
(§9) (5) Suspension strength was determined via hemocytometer then adjusted to 1×10^6 spores/mL with sterile deionized water.
(§10) (6) Added 100 microliters of the microorganism suspension to all wells except for sterility (−) controls containing test media. The water used to prepare the fungal suspensions was added to sterility (−) control wells.
(§11) (7) The inoculated 96-well plates were incubated for 3 days at 35° C.
(8) After incubation, fungal growth was evaluated by visual growth in test wells. Minimum inhibitory concentration (MIC) is recorded in ppm and defined as the lowest concentration of fungicide that produces no visual changes in turbidity in the test wells.
Minimal inhibitory concentration of the composition of this invention (mixture of DPAB and IPBC) are analyzed using the following equation:
(§12) MCA=Concentration of compound A in parts per million, acting alone, which prevents fungal growth at the reference point
(§13) MCA′=Concentration of compound A in parts per million, in the mixture, which prevents fungal growth at the reference point
(§14) MCB=Concentration of compound B in parts per million, acting alone, which prevents fungal growth at the reference point
(§15) MCB′=Concentration of compound B in parts per million, in the mixture, which prevents fungal growth at the reference point
(§16) When SI is greater than 2, antagonism is indicated. […] When SI is between 0.5 and 2, the action of biocides is additive.

[2] = system: Trichoderma pseudokoningii (ATCC #26801); assay: as above; format: cell-based; parameters: key to growth of Trichoderma pseudokoningii in 96-well plates: (+) in each block indicates growth; (−) indicates no growth, i.e., the inhibitor was effective; conditions: for MIC: Trichoderma pseudokoningii ATCC 26801, 3 days at 35° C.
Experimental: as §1, §2, §3, §4, §5, §6, §7, §8, §9, §10, §11
(8) After incubation, fungal growth was evaluated by visual growth in test wells. Minimum inhibitory concentration (MIC) is recorded in ppm and defined as the lowest concentration of fungicide that produces no visual changes in turbidity in the test wells. (+) in each block indicates growth and (−) indicates no growth, i.e., the inhibitor was effective.
(9) The experiment is only considered valid if growth is observed in the positive (+) control wells and no growth is observed in the negative control wells.
In order to show more directly the possible synergy in the invention, the results are presented by applying the Synergy Index (S.I.). Minimal inhibitory concentration of the composition of this invention (mixture of DPAB and IPBC) are analyzed using the following equation:
as §12, §13, §14, §15, §16

Row | Molecule | MIC [1] [ppm] | growth of Penicillium funiculosum in 96-well plates ([1]; well 1, concentration 50.00) | growth of Penicillium funiculosum in 96-well plates ([1]; well 2, concentration 25.00) | growth of Penicillium funiculosum in 96-well plates ([1]; well 3, concentration 12.50) | growth of Penicillium funiculosum in 96-well plates ([1]; well 4, concentration 6.25) | growth of Penicillium funiculosum in 96-well plates ([1]; well 5, concentration 3.13) | growth of Penicillium funiculosum in 96-well plates ([1]; well 6, concentration 1.56) | growth of Penicillium funiculosum in 96-well plates ([1]; well 7, concentration 0.78) | growth of Penicillium funiculosum in 96-well plates ([1]; well 8, concentration 0.39) | growth of Penicillium funiculosum in 96-well plates ([1]; well 9, concentration 0.20) | growth of Penicillium funiculosum in 96-well plates ([1]; well 11, concentration 0.05) | growth of Penicillium funiculosum in 96-well plates ([1]; well 12, concentration 0.02) | MIC [2] [ppm] | growth of Trichoderma pseudokoningii in 96-well plates ([2]; well 1, 50.00 ppm active) | growth of Trichoderma pseudokoningii in 96-well plates ([2]; well 2, 25.00 ppm active) | growth of Trichoderma pseudokoningii in 96-well plates ([2]; well 3, 12.50 ppm active) | growth of Trichoderma pseudokoningii in 96-well plates ([2]; well 4, 6.25 ppm active) | growth of Trichoderma pseudokoningii in 96-well plates ([2]; well 5, 3.13 ppm active) | growth of Trichoderma pseudokoningii in 96-well plates ([2]; well 6, 1.56 ppm active) | growth of Trichoderma pseudokoningii in 96-well plates ([2]; well 7, 0.78 ppm active) | also measured
1 | didecyl bis(hydroxyethyl) ammonium borate [DPAB] | 6.25 | − | − | − | − | + | + | + | + | + | + | + | 25.00 | − | − | + | + | + | + | + | growth of Penicillium funiculosum in 96-well plates ([1]; well 10, concentration 0.10): +; growth of Trichoderma pseudokoningii in 96-well plates ([2]; well 8, 0.39 ppm active): +; growth of Trichoderma pseudokoningii in 96-well plates ([2]; well 9, 0.20 ppm active): +; growth of Trichoderma pseudokoningii in 96-well plates ([2]; well 10, 0.10 ppm active): +; growth of Trichoderma pseudokoningii in 96-well plates ([2]; well 11, 0.05 ppm active): +; growth of Trichoderma pseudokoningii in 96-well plates ([2]; well 12, 0.02 ppm active): +
2 | CCCCNC(=O)OCC#CI [IPBC, 3-iodo-2-propynyl butyl carbamate] | 0.78 | − | − | − | − | − | − | − | + | + | + | + | 6.25 | − | − | − | − | + | + | + | growth of Trichoderma pseudokoningii in 96-well plates ([2]; well 8, 0.39 ppm active): +; growth of Trichoderma pseudokoningii in 96-well plates ([2]; well 9, 0.20 ppm active): +; growth of Trichoderma pseudokoningii in 96-well plates ([2]; well 10, 0.10 ppm active): +; growth of Trichoderma pseudokoningii in 96-well plates ([2]; well 11, 0.05 ppm active): +; growth of Trichoderma pseudokoningii in 96-well plates ([2]; well 12, 0.02 ppm active): +
